Test results taken from publication PMC5929572, “Nucleobases and corresponding nucleosides display potent antiviral activities against dengue virus possibly through viral lethal mutagenesis” (PLoS Neglected Tropical Diseases, 2018).

What was measured:
[1] = Cell viability assay (MTS) in DENV replicon cells; assay type: cell-based, baby hamster; settings: hamster, DENV replicon cells (BHK pD2-hRucPac-2ATG30), DENV replicon BHK cells, MTS, 72 h
DENV-2 [2] = assay: Virus passage in presence of compound, supernatant titer by plaque assay; assay type: cell-based, DENV-2 New Guinea C strain; settings: 3b 500 μM, Huh-7, passages 4 and 5; limit of detection 3.3 pfu/mL
Protocol: Huh-7 cells were seeded in 12-well plates at a density of 4×10^5 cells per well in 1 mL culture medium. The next day, cells were washed and inoculated with DENV at a multiplicity of infection (m.o.i.) of 0.2 in 500μl infection medium (MEM containing 2% FBS and 10 mM HEPES). The inoculum was removed after 1h, cells were washed with PBS and then incubated in 1 mL MEM, 2% FBS, 1% pen/strep plus compound for 72 h. Viral supernatants were clarified by centrifugation for 5 min at 1500×g and aliquoted and stored at -80°C. Viral titers were determined using a plaque assay on Vero cells. Briefly, confluent Vero cell monolayers in 24-well plates were incubated at 37°C for 1 h with duplicate 300 μl samples of 10-fold serial dilutions of viral supernatants. The cells were then washed to remove unbound viral particles and overlaid with 500ul MEM containing 1.3% methylcellulose, 5% FBS and 10mM HEPES. […] Infectious virus titer (pfu/mL) was determined using the following formula: number of plaques × dilution factor × (1/inoculation volume). […]
(§1) Virus was passaged on Huh-7 cells supplemented with 200 μM 3a, 500 μM 3b or DMSO (0.5%). […] The virus titer in the harvested supernatant was determined by plating ten-fold serial dilutions onto single wells of a 24-well plate. […] Supernatant titer was determined from a single well where there were approximately 20–50 plaques when possible. […]

DENV-2 [3] = assay: Virus passage in presence of compound, genome copy number by RT-qPCR (NS5); assay type: cell-based, DENV-2 New Guinea C strain; settings: 3b 500 μM, Huh-7, passage 5; limit of detection 30 copies
Protocol: For qPCR determination of viral genome copy number, viral RNA was isolated from 140 μL of drug-treated or DMSO-treated infected culture supernatant using QIAamp Viral RNA mini kit (Qiagen), following manufacturer’s protocol. Viral RNA was quantified using the TaqMan RNA-to-CT 1-Step qPCR Kit (Applied Biosystems). Primers used for qPCR were 5’-[…]-3’ (forward) and 5’-[…]-3’ (reverse) amplifying a region numbering 8928–8988 in the genome (numbering starting from the beginning of genome, accession number KM204118). The qPCR FAM probe sequence is 5’-[…]-3’. Serial 10-fold dilutions of plasmid containing the NS5 gene of DENV were used to generate a standard curve for the quantification of viral RNA genome copy number based on cycle threshold (CT) values. […] Sequences were aligned over a 980-base region that had adequate quality sequencing reads for all clones. Only mutations present in both the forward and reverse reads of a clone were counted. All incidence-based determinants of mutation frequency (Mf min, Mf max, Mfe) were calculated as described.
as §1

DENV-2 [4] = assay: Sequence analysis of prM/E region clones from passaged virus (mutation frequency); assay type: cell-based, DENV-2 New Guinea C strain
Protocol: For qPCR determination of viral genome copy number, viral RNA was isolated from 140 μL of drug-treated or DMSO-treated infected culture supernatant using QIAamp Viral RNA mini kit (Qiagen), following manufacturer’s protocol. Viral RNA was quantified using the TaqMan RNA-to-CT 1-Step qPCR Kit (Applied Biosystems). Primers used for qPCR were 5’-[…]-3’ (forward) and 5’-[…]-3’ (reverse) amplifying a region numbering 8928–8988 in the genome (numbering starting from the beginning of genome, accession number KM204118). The qPCR FAM probe sequence is 5’-[…]-3’. Serial 10-fold dilutions of plasmid containing the NS5 gene of DENV were used to generate a standard curve for the quantification of viral RNA genome copy number based on cycle threshold (CT) values. The limit of detection for NS5 plasmid dilutions was 30 copies (S1 Fig). […] Statistical analysis via GraphPad Prism 5 software. To obtain sequence data from viral RNA isolated at each passage, cDNA was generated via M-MLV reverse transcriptase and random hexamers (New England Biolab Inc.) per manufacturer’s instructions. An approximately 1600-base fragment covering membrane protein (prM) and envelop protein gene (E) of DENV-2 viral genome was amplified using PfuUltra II Fusion HS DNA polymerase (Agilent) with primers prMEfor (5'- […]-3') and prMErev (5'- […] -3'). PCR products were purified using Qiaquick PCR purification kit (Qiagen) and then digested with EcoRI and ligated into pcDNA3.1 for sequencing. Sequence for approximately 40–50 individual clones per sample was obtained from the University of Minnesota Genomics Center. Sequences were aligned over a 980-base region that had adequate quality sequencing reads for all clones. Only mutations present in both the forward and reverse reads of a clone were counted. All incidence-based determinants of mutation frequency (Mf min, Mf max, Mfe) were calculated as described.
Virus was passaged on Huh-7 cells supplemented with 200 μM 3a, 500 μM 3b or DMSO (0.5%). Huh-7 cells were seeded in 12-well plates and inoculated with DENV-2 as described for Titer reduction experiments above except an m.o.i. of 0.01 was used. After 3 days of compound treatment, 50 μL of the harvested supernatant was used to inoculate fresh Huh-7 cells in the continued presence of compound. The virus titer in the harvested supernatant was determined by plating ten-fold serial dilutions onto single wells of a 24-well plate. The wells were washed and overlaid as described in the Titer reduction assay above. If no plaques were obtained in any of the harvested supernatant dilutions, the undiluted supernatant was used. If plaques were not detectable, the virus titer was considered to be at the limit of detection, 1 plaque (3.3 pfu/mL). Supernatant titer was determined from a single well where there were approximately 20–50 plaques when possible. This experiment was repeated three times at the compound concentrations listed.

[5] = Cell viability assay (MTS) in Huh-7 cells; assay type: cell-based; settings: human
Protocol: The sensitivity of the cell lines to the compounds was examined using the 3-(4,5-dimethylthiazol-2-yl)-5-(3-carboxymethoxyphenyl)-2-(4-sulfophenyl)-2H-tetrazolium (MTS)-based tetrazolium reduction CellTiter 96 Aqueous Non-Radioactive cell proliferation assay (Promega G5430). The compounds were initially tested at 10 and 50 μM final concentrations. Each plate also contained DMSO alone, medium alone, and an inhibitory compound, 6. DENV replicon or Huh-7 cells were plated at a density of 1,500 or 8 × 10^3 cells, respectively, per well in 96-well plates containing 100 μl of culture medium overnight. Compounds were added to triplicate wells in culture medium and incubated for an additional 72 h. MTS reagent was then added to each well and incubated at 37°C in a humidified 5% CO2 atmosphere. The plates were read at various time points at a wavelength of 490 nm using a Molecular Devices M5e plate reader. Mean values of triplicate wells were determined and compared to the mean value for the wells that received DMSO alone. For compounds selected for dose-response experiments, the CC50 was determined by comparing cell viability for eight serial dilutions of the compound and DMSO treated cells using GraphPad Prism software.

DENV-2 [6] = assay: Titer reduction assay in Huh-7 cells, plaque assay on Vero cells; assay type: cell-based, DENV-2 New Guinea C strain; settings: Dengue virus, DENV2, m.o.i. 0.2, 72 h
Protocol: Huh-7 cells were seeded in 12-well plates at a density of 4×10^5 cells per well in 1 mL culture medium. The next day, cells were washed and inoculated with DENV at a multiplicity of infection (m.o.i.) of 0.2 in 500μl infection medium (MEM containing 2% FBS and 10 mM HEPES). The inoculum was removed after 1h, cells were washed with PBS and then incubated in 1 mL MEM, 2% FBS, 1% pen/strep plus compound for 72 h. Viral supernatants were clarified by centrifugation for 5 min at 1500×g and aliquoted and stored at -80°C. Viral titers were determined using a plaque assay on Vero cells. Briefly, confluent Vero cell monolayers in 24-well plates were incubated at 37°C for 1 h with duplicate 300 μl samples of 10-fold serial dilutions of viral supernatants. The cells were then washed to remove unbound viral particles and overlaid with 500ul MEM containing 1.3% methylcellulose, 5% FBS and 10mM HEPES. After 5 days of incubation at 37°C and 5% CO2, cells were washed with PBS, fixed, and stained using 1% Giemsa. Infectious virus titer (pfu/mL) was determined using the following formula: number of plaques × dilution factor × (1/inoculation volume). The viral titer was presented as the mean of duplicate samples from a dilution yielding approximately 20–50 plaques per well.

[7] = tested on: DENV replicon cells (BHK pD2-hRucPac-2ATG30); assay: Cell viability assay (MTS) in DENV replicon cells; assay type: cell-based, baby hamster
DENV-2 viral replicon = assay: microbe, parasite or virus in culture; assay type: cell-based; settings: Dengue virus, DENV2, BHK, 72 h
Protocol: Compounds were evaluated for antiviral properties using BHK cells containing a DENV-2 viral replicon. 1.5 × 10^3 replicon-containing cells per well were plated in white opaque 96-well plates in the absence of antibiotic selection and the next day, compounds dissolved in DMSO were added to triplicate wells in culture medium. The compounds were initially tested at 10 and 50 μM final concentrations and each plate also contained DMSO alone, medium alone, and 6. Three days later, medium was replaced with a 1:1000 dilution of ViVi-Ren Live Cell Substrate (Promega) in DME minus phenol red and 10% FBS. Luminescence was measured with a Molecular Devices M5e plate reader. Mean values of triplicate wells were determined and compared to the mean value for the wells that received DMSO alone. […] The EC50 was determined by comparing luciferase activity for eight serial dilutions of the compound and DMSO treated cells using GraphPad Prism software.

[8] = passage 2, 3a 200 μM, 3b 500 μM, Huh-7
[9] = passage 3, 3a 200 μM, 3b 500 μM, Huh-7

NC(=O)c1nccn([C@@H]2O[C@H](CO)[C@@H](O)[C@H]2O)c1=O [Compound 3b]
CC50 at 72 h [1]: > 1000 µM | infectious virus in supernatant (DENV-2 [2]): undetectable | genomic RNA in supernatant (DENV-2 [3]): undetectable | number of mutations per clone compared to DMSO (DENV-2 [4]; 3a 200 μM passage 4, 3b 500 μM passage 3, p < 0.0001, Mann-Whitney U): significant difference | Mf max (maximum mutation frequency) (DENV-2 [4]; [8]): 15.3 per 10,000 nucleotides | Mf min (minimum mutation frequency) (DENV-2 [4]; [8]): 10.7 per 10,000 nucleotides | Mfe (entity level mutation frequency) (DENV-2 [4]; [8]): 2.4 ×10^−3 | Number of clones with mutation/total (DENV-2 [4]; [8]): 22/34 | Number of different mutations (DENV-2 [4]; [8]): 33 | Number of haplotypes (DENV-2 [4]; [8]): 22 | Number of total mutations (DENV-2 [4]; [8]): 47 | Transition A→G, number of mutations (DENV-2 [4]; [8]): 6 | Transition C→U, number of mutations (DENV-2 [4]; [8]): 4 | Transition G→A, number of mutations (DENV-2 [4]; [8]): 6 | Transition U→C, number of mutations (DENV-2 [4]; [8]): 14 | Transversion G→U, number of mutations (DENV-2 [4]; [8]): 2 | Transversion U→G, number of mutations (DENV-2 [4]; [8]): 1 | Mf max (maximum mutation frequency) (DENV-2 [4]; [9]): 15.8 per 10,000 nucleotides | Mf min (minimum mutation frequency) (DENV-2 [4]; [9]): 4.7 per 10,000 nucleotides | Mfe (entity level mutation frequency) (DENV-2 [4]; [9]): 2.2 ×10^−3 | Number of clones with mutation/total (DENV-2 [4]; [9]): 22/35 | Number of different mutations (DENV-2 [4]; [9]): 15 | Number of haplotypes (DENV-2 [4]; [9]): 17 | Number of total mutations (DENV-2 [4]; [9]): 50 | Transition A→G, number of mutations (DENV-2 [4]; [9]): 4 | Transition C→U, number of mutations (DENV-2 [4]; [9]): 6 | Transition G→A, number of mutations (DENV-2 [4]; [9]): 1 | Transition U→C, number of mutations (DENV-2 [4]; [9]): 3 | Transversion U→A, number of mutations (DENV-2 [4]; [9]): 1 | CC50 at 72 h [5]: > 1000 µM | EC50 (DENV-2 [6]): 60 ± 22 µM

Nc1nc(N)c2[nH]cnc2n1 [Compound 4a, 2,6-diaminopurine]
CC50 at 72 h [1]: 13 ± 2.1 µM

Nc1nc(N)c2ncn([C@@H]3O[C@H](CO)[C@@H](O)[C@H]3O)c2n1 [Compound 4b, 2-Aminoadenosine]
CC50 at 72 h [1]: 31 ± 1.4 µM | toxicity, in words ([7]; DENV replicon cells): too toxic

NC(=O)c1nc(F)c[nH]c1=O [Compound 5a, 6-fluoro-3-hydroxypyrazine-2-carboxamide, reference compound]
CC50 at 72 h [1]: > 1000 µM | CC50 ([7]; DENV replicon BHK cells, MTS, 72 h): > 665 µM | EC50 (DENV-2 viral replicon): 110 ± 30 µM

COc1c(C)c2c(c(O)c1C/C=C(\C)CCC(=O)O)C(=O)OC2 [Compound 6, mycophenolic acid, reference compound]
CC50 at 72 h [1]: 1.4 ± 0.4 µM | EC50 (DENV-2 viral replicon): 0.3 ± 0.03 µM
